In patent US20260138949A1, “NOVEL COMPOUND AS PHOSPHOLIPASE D INHIBITOR AND USE THEREOF” (UIF (UNIVERSITY INDUSTRY FOUNDATION), YONSEI UNIVERSITY, priority 2022, published 2026):

Tested on: phospholipase D1
Test: PLD activity in HCT116 cells ([3H]phosphatidylbutanol, TLC)
Format: cell-based, human
Details: compound 10 μM, cells without the compound = 100%
Method: To evaluate the inhibitory effect of the compounds according to the present invention on phospholipase D1 activity, experiments were conducted as follows.
For the analysis of PLD activity in cells, human colon cancer cell line (HCT116) was cultured in a 6-well plate at 37° C. for 24 hours, washed twice with phosphate-buffered saline (PBS), and then replaced with medium containing [^3H]myristate and cultured for 24 hours. After the culture, the cells were washed three times with PBS, treated with 1-butanol, and the drug was added to a final concentration of 10 μM. The cells were trypsinized and suspended, and the amount of [^3H]phosphatidylbutanol produced in the cell suspension was measured and evaluated for PLD activity using thin layer chromatography (TLC), and the results are shown in Table 1 below.
The Remaining activity % at 10 μM in Table 1 is calculated by setting the amount of [^3H]phosphatidylbutanol produced in cells without the compound as 100% and calculating the amount of [^3H]phosphatidylbutanol produced in cells treated with the compound as a percentage. Therefore, the lower the value of Remaining activity %, the higher the PLD inhibitory activity.

Question: Which “Remaining activity % at 10 μM” value does the source give for `COc1ccc(CNC(=O)Cc2c[nH]c3ccccc23)cc1` [Example 1-39, 2-(1H-indol-3-yl)-N-(4-methoxybenzyl)acetamide] here?
Answer: 91.57%

Question: For `Cc1cccc(CNC(=O)Cc2c[nH]c3ccccc23)c1` [Example 1-40, 2-(1H-indol-3-yl)-N-(3-methylbenzyl)acetamide], which “Remaining activity % at 10 μM” value is on record?
Answer: 95.87%

Question: Which “Remaining activity % at 10 μM” value does the source give for `CC(C)(C)c1ccc(CNC(=O)Cc2c[nH]c3ccccc23)cc1` [Example 1-41, N-(4-tert-butylbenzyl)-2-(1H-indol-3-yl)acetamide] here?
Answer: 59.99%

Question: With `O=C(Cc1c[nH]c2ccccc12)NCc1cccc(C(F)(F)F)c1` [Example 1-42, 2-(1H-indol-3-yl)-N-(3-(trifluoromethyl)benzyl)acetamide] as the molecule, how does the “Remaining activity % at 10 μM” value read?
Answer: 34.44%

Question: `O=C(Cc1c[nH]c2ccccc12)NCc1ccc(C(F)(F)F)cc1` [Example 1-43, 2-(1H-indol-3-yl)-N-(4-(trifluoromethyl)benzyl)acetamide] was tested. Which “Remaining activity % at 10 μM” value did it give?
Answer: 48.92%

Question: How did the “Remaining activity % at 10 μM” value turn out when `COc1ccc(CNC(=O)Cc2c[nH]c3ccccc23)c(OC)c1` [Example 1-44, N-(2,4-dimethoxybenzyl)-2-(1H-indol-3-yl)acetamide] was run?
Answer: 54.83%

Question: With `COc1ccc(CNC(=O)Cc2c[nH]c3ccccc23)cc1OC` [Example 1-45, N-(3,4-dimethoxybenzyl)-2-(1H-indol-3-yl)acetamide] as the molecule, how does the “Remaining activity % at 10 μM” value read?
Answer: 41.05%

Question: `O=C(Cc1c[nH]c2ccccc12)NCc1ccc([N+](=O)[O-])cc1` [Example 1-46, 2-(1H-indol-3-yl)-N-(4-nitrobenzyl)acetamide] was tested. Which “Remaining activity % at 10 μM” value did it give?
Answer: 57.41%

Question: Which “Remaining activity % at 10 μM” value does the source give for `O=C(Cc1c[nH]c2ccccc12)NCc1cccc(Cl)c1Cl` [Example 1-47, N-(2,3-dichlorobenzyl)-2-(1H-indol-3-yl)acetamide] here?
Answer: 62.96%

Question: For `O=C(Cc1c[nH]c2ccccc12)NCc1ccccc1Cl` [Example 1-48, N-(2-chlorobenzyl)-2-(1H-indol-3-yl)acetamide], which “Remaining activity % at 10 μM” value is on record?
Answer: 75.72%

Question: For `O=C(Cc1c[nH]c2ccccc12)NCc1ccc(Cl)cc1` [Example 1-49, N-(4-chlorobenzyl)-2-(1H-indol-3-yl)acetamide], which “Remaining activity % at 10 μM” value is on record?
Answer: 59.74%

Question: For `COc1ccccc1CNC(=O)Cc1c[nH]c2ccccc12` [Example 1-50, 2-(1H-indol-3-yl)-N-(2-methoxybenzyl)acetamide], which “Remaining activity % at 10 μM” value is on record?
Answer: 79.27%

Question: For `O=C(Cc1c[nH]c2ccccc12)NNc1ccccc1Cl` [Example 1-51, N′-(2-chlorophenyl)-2-(1H-indol-3-yl)acetohydrazide], which “Remaining activity % at 10 μM” value is on record?
Answer: 82.82%

Question: How did the “Remaining activity % at 10 μM” value turn out when `O=C(Cc1c[nH]c2ccccc12)NNc1cccc(Cl)c1` [Example 1-52, N′-(3-chlorophenyl)-2-(1H-indol-3-yl)acetohydrazide] was run?
Answer: 95.18%

Question: How did the “Remaining activity % at 10 μM” value turn out when `O=C(Cc1c[nH]c2ccccc12)NNc1ccc(Cl)cc1` [Example 1-53, N′-(4-chlorophenyl)-2-(1H-indol-3-yl)acetohydrazide] was run?
Answer: not active

Question: Which “Remaining activity % at 10 μM” value does the source give for `O=C(Cc1c[nH]c2ccccc12)NNc1ccc(Cl)c(Cl)c1` [Example 1-54, N′-(3,4-dichlorophenyl)-2-(1H-indol-3-yl)acetohydrazide] here?
Answer: not active

Question: `O=C(Cc1c[nH]c2ccccc12)NNc1ccc(Br)cc1` [Example 1-55, N′-(4-bromophenyl)-2-(1H-indol-3-yl)acetohydrazide] was tested. Which “Remaining activity % at 10 μM” value did it give?
Answer: 77.89%

Question: Which “Remaining activity % at 10 μM” value does the source give for `O=C(Cc1c[nH]c2ccccc12)NCc1ccccn1` [Example 1-56, 2-(1H-indol-3-yl)-N-(pyridin-2-ylmethyl)acetamide] here?
Answer: 96.79%

Question: How did the “Remaining activity % at 10 μM” value turn out when `O=C(Cc1c[nH]c2ccccc12)NCc1cccnc1` [Example 1-57, 2-(1H-indol-3-yl)-N-(pyridin-3-ylmethyl)acetamide] was run?
Answer: not active

Question: Which “Remaining activity % at 10 μM” value does the source give for `O=C(Cc1c[nH]c2ccccc12)NCc1ccncc1` [Example 1-58, 2-(1H-indol-3-yl)-N-(pyridin-4-ylmethyl)acetamide] here?
Answer: not active

Question: With `O=C(Cc1c[nH]c2ccccc12)NCCc1ccccc1` [Example 1-59, 2-(1H-indol-3-yl)-N-phenethylacetamide] as the molecule, how does the “Remaining activity % at 10 μM” value read?
Answer: not active

Question: For `O=C(Cc1c[nH]c2ccccc12)NCCc1ccc(Br)cc1` [Example 1-60, N-(4-bromophenethyl)-2-(1H-indol-3-yl)acetamide], which “Remaining activity % at 10 μM” value is on record?
Answer: 82.15%

Question: With `O=C(CCc1c[nH]c2ccccc12)Nc1ccccc1F` [Example 1-61, N-(2-fluorophenyl)-3-(1H-indol-3-yl)propanamide] as the molecule, how does the “Remaining activity % at 10 μM” value read?
Answer: 45.47%

Question: With `O=C(CCc1c[nH]c2ccccc12)Nc1cccc(F)c1` [Example 1-62, N-(3-fluorophenyl)-3-(1H-indol-3-yl)propanamide] as the molecule, how does the “Remaining activity % at 10 μM” value read?
Answer: 49.36%

Question: For `O=C(CCc1c[nH]c2ccccc12)Nc1ccc(F)cc1` [Example 1-63, N-(4-fluorophenyl)-3-(1H-indol-3-yl)propanamide], which “Remaining activity % at 10 μM” value is on record?
Answer: not active

Question: Which “Remaining activity % at 10 μM” value does the source give for `O=C(CCc1c[nH]c2ccccc12)Nc1cccc(Br)c1` [Example 1-64, N-(3-bromophenyl)-3-(1H-indol-3-yl)propanamide] here?
Answer: not active

Question: With `O=C(CCc1c[nH]c2ccccc12)Nc1ccc(Br)cc1` [Example 1-65, N-(4-bromophenyl)-3-(1H-indol-3-yl)propanamide] as the molecule, how does the “Remaining activity % at 10 μM” value read?
Answer: not active

Question: How did the “Remaining activity % at 10 μM” value turn out when `O=C(CCc1c[nH]c2ccccc12)Nc1cc(F)cc(F)c1` [Example 1-66, N-(3,5-difluorophenyl)-3-(1H-indol-3-yl)propanamide] was run?
Answer: 84.92%

Question: `O=C(CCc1c[nH]c2ccccc12)Nc1cc(C(F)(F)F)cc(C(F)(F)F)c1` [Example 1-67, N-(3,5-bis(trifluoromethyl)phenyl)-3-(1H-indol-3-yl)propanamide] was tested. Which “Remaining activity % at 10 μM” value did it give?
Answer: 29.17%

Question: `O=C(CCc1c[nH]c2ccccc12)Nc1ccc(Cl)c([N+](=O)[O-])c1` [Example 1-68, N-(4-chloro-3-nitrophenyl)-3-(1H-indol-3-yl)propanamide] was tested. Which “Remaining activity % at 10 μM” value did it give?
Answer: not active

Question: For `O=C(CCc1c[nH]c2ccccc12)Nc1ccc(Cl)c(Cl)c1` [Example 1-69, N-(3,4-dichlorophenyl)-3-(1H-indol-3-yl)propanamide], which “Remaining activity % at 10 μM” value is on record?
Answer: not active

Question: For `COc1ccc(NC(=O)CCc2c[nH]c3ccccc23)cc1OC` [Example 1-70, N-(3,4-dimethoxyphenyl)-3-(1H-indol-3-yl)propanamide], which “Remaining activity % at 10 μM” value is on record?
Answer: not active

Question: Which “Remaining activity % at 10 μM” value does the source give for `COc1ccc(CNC(=O)CCc2c[nH]c3ccccc23)cc1` [Example 1-71, 3-(1H-indol-3-yl)-N-(4-methoxybenzyl)propanamide] here?
Answer: 51.45%

Question: Which “Remaining activity % at 10 μM” value does the source give for `O=C(CCc1c[nH]c2ccccc12)NCc1ccc(Cl)c(Cl)c1` [Example 1-72, N-(3,4-dichlorobenzyl)-3-(1H-indol-3-yl)propanamide] here?
Answer: not active

Question: `COc1ccc(CNC(=O)CCc2c[nH]c3ccccc23)cc1OC` [Example 1-73, N-(3,4-dimethoxybenzyl)-3-(1H-indol-3-yl)propanamide] was tested. Which “Remaining activity % at 10 μM” value did it give?
Answer: 95.81%

Question: How did the “Remaining activity % at 10 μM” value turn out when `O=C(CCCc1c[nH]c2ccccc12)Nc1cccc(F)c1` [Example 1-74, N-(3-fluorophenyl)-4-(1H-indol-3-yl)butanamide] was run?
Answer: 72.65%

Question: How did the “Remaining activity % at 10 μM” value turn out when `O=C(CCCc1c[nH]c2ccccc12)Nc1ccc(F)cc1` [Example 1-75, N-(4-fluorophenyl)-4-(1H-indol-3-yl)butanamide] was run?
Answer: not active

Question: `O=C(CCCc1c[nH]c2ccccc12)Nc1ccc(Br)cc1` [Example 1-76, N-(4-bromophenyl)-4-(1H-indol-3-yl)butanamide] was tested. Which “Remaining activity % at 10 μM” value did it give?
Answer: 79.65%

Question: How did the “Remaining activity % at 10 μM” value turn out when `O=C(CCCc1c[nH]c2ccccc12)Nc1cc(C(F)(F)F)cc(C(F)(F)F)c1` [Example 1-77, N-(3,5-bis(trifluoromethyl)phenyl)-4-(1H-indol-3-yl)butanamide] was run?
Answer: 50.79%

Question: How did the “Remaining activity % at 10 μM” value turn out when `O=C(CCCc1c[nH]c2ccccc12)Nc1ccc(Cl)c([N+](=O)[O-])c1` [Example 1-78, N-(4-chloro-3-nitrophenyl)-4-(1H-indol-3-yl)butanamide] was run?
Answer: 42.24%

Question: How did the “Remaining activity % at 10 μM” value turn out when `O=C(CCCc1c[nH]c2ccccc12)Nc1ccc(Cl)c(Cl)c1` [Example 1-79, N-(3,4-dichlorophenyl)-4-(1H-indol-3-yl)butanamide] was run?
Answer: 61.61%

Question: `COC(=O)c1ccc(CNC(=O)CCCc2c[nH]c3ccccc23)cc1` [Example 1-80, methyl 4-((4-(1H-indol-3-yl)butanamido)methyl)benzoate] was tested. Which “Remaining activity % at 10 μM” value did it give?
Answer: 56.02%

Question: `COc1ccc(CNC(=O)CCCc2c[nH]c3ccccc23)cc1` [Example 1-81, 4-(1H-indol-3-yl)-N-(4-methoxybenzyl)butanamide] was tested. Which “Remaining activity % at 10 μM” value did it give?
Answer: 59.84%

Question: `O=C(CCCc1c[nH]c2ccccc12)NCc1ccc(Cl)c(Cl)c1` [Example 1-82, N-(3,4-dichlorobenzyl)-4-(1H-indol-3-yl)butanamide] was tested. Which “Remaining activity % at 10 μM” value did it give?
Answer: 94.09%

Question: With `O=C(Nc1ccc(F)cc1)c1cc2ccccc2[nH]1` [Example 1-83, N-(4-fluorophenyl)-1H-indole-2-carboxamide] as the molecule, how does the “Remaining activity % at 10 μM” value read?
Answer: not active

Question: For `O=C(Nc1cc(C(F)(F)F)cc(C(F)(F)F)c1)c1cc2ccccc2[nH]1` [Example 1-84, N-(3,5-bis(trifluoromethyl)phenyl)-1H-indole-2-carboxamide], which “Remaining activity % at 10 μM” value is on record?
Answer: 26.01%

Question: With `O=C(Nc1ccc(Cl)c([N+](=O)[O-])c1)c1cc2ccccc2[nH]1` [Example 1-85, N-(4-chloro-3-nitrophenyl)-1H-indole-2-carboxamide] as the molecule, how does the “Remaining activity % at 10 μM” value read?
Answer: 53.78%

Question: Which “Remaining activity % at 10 μM” value does the source give for `O=C(Nc1ccc(Cl)c(Cl)c1)c1cc2ccccc2[nH]1` [Example 1-86, N-(3,4-dichlorophenyl)-1H-indole-2-carboxamide] here?
Answer: not active
